According to patent US4021556A, “Xanthine oxidase inhibitors” (ICN Pharmaceuticals, Inc., priority 1975, dated 1977):

What was measured:
[1] = molecular target: T1, purified milk xanthine oxidase (Bos taurus, UniProt P80457); assay: Xanthine oxidase inhibition, spectrophotometric at 290 nm; assay type: biochemical; details: for relative activity (α) compared to allopurinol: ratio to allopurinol (allopurinol = 1); for IC50: xanthine substrate 0.013 micromoles in 3.0 ml, tris HCl buffer pH 7.50, 25° C, unit taken, none in table
T1 construct: purchased Worthington Biochemical Corporation
Procedure: In this example, the inhibitory activity of the compounds of the invention was determined by recording spectral changes at a constant wavelength of 290 nm, using a Cary Model 15 recording spectrophotometer equipped with a 0-0.1 O.D. slidewire. […] After dissolving in DMSO, the compounds were introduced into the incubation mixture containing 150 micromoles of tris HCl buffer (pH 7.50), 0.6 micromoles EDTA, 0.013 micromoles xanthine, and 20 to 40 micrograms of xanthine oxidase in a final volume of 3.0 milliliters. […] The assay was carried out by mixing all the components in a cuvette at 25° C. The reaction was started by the addition of the enzyme with the aid of a stirrer-adder. Changes in O.D. were measured for several minutes, and the rate (O.D. per minute) was calculated from the spectral change over the first 15 seconds.

xanthine oxidase = details: metabolite of allopurinol; cited from earlier work
[2] = dose killing 50% of a group of animals in two weeks, injected into the intraparietal cavity; 20160 min; cited from earlier work
[3] = cited from earlier work

T1 sequence (P80457 whole entry): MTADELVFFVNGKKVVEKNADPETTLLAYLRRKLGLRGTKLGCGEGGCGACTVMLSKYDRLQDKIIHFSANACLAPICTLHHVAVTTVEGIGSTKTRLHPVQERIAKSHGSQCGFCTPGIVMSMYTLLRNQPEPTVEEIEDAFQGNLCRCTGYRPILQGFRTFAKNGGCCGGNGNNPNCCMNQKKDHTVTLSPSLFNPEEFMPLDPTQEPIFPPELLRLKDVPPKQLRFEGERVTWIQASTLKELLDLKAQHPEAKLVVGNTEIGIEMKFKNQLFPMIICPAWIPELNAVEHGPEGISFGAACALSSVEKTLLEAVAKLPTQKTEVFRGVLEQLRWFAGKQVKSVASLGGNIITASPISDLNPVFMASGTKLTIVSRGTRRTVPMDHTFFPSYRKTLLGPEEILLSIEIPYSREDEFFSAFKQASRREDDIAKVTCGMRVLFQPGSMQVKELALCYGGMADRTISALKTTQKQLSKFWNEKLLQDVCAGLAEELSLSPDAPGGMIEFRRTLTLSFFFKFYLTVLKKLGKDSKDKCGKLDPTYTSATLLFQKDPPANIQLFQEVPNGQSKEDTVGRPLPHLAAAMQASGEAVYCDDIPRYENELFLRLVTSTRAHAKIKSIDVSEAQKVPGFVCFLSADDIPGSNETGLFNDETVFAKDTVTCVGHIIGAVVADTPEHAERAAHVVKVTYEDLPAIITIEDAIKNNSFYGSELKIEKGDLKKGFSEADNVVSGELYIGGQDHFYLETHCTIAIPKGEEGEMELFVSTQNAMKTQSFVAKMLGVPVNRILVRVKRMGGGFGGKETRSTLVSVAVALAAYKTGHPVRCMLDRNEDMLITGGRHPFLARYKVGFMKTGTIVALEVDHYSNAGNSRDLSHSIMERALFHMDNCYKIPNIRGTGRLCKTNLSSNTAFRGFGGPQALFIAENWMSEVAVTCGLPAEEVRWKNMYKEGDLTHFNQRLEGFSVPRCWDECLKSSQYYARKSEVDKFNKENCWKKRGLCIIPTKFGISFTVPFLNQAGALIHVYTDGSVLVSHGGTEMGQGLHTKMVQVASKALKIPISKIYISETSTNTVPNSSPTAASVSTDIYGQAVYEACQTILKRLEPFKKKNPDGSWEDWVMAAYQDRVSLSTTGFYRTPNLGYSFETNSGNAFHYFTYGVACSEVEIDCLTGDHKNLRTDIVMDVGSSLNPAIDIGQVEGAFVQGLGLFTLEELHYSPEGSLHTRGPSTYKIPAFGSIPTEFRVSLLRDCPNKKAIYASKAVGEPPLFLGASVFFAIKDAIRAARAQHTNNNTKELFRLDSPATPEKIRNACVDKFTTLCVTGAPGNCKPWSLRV

Row | Compound | relative activity (α) compared to allopurinol [1] | further results
1 | 3-(1'-naphthyl)pyrazolo[1,5,a]pyrimidine-5,7-diol [Compound (9)] | 20 | –
2 | 3-(3'-pyridyl)pyrazolo[1,5,a]pyrimidine-5,7-diol [(8)] | 116 | –
3 | 3-(m-tolyl)pyrazolo[1,5,a]pyrimidine-5,7-diol [(2)] | 116 | –
4 | 3-(p-acetamidophenyl)pyrazolo[1,5,a]pyrimidine-5,7-diol [(6)] | 200 | –
5 | 3-(p-bromophenyl)pyrazolo[1,5,a]pyramidine-5,7-diol [Compound (4)] | 56 | –
6 | 3-(p-chlorophenyl)pyrazolo[1,5,a]pyrimidine-5,7-diol [(5)] | 131 | –
7 | 3-(p-tolyl)pyrazolo[1,5,a]pyrimidine-5,7-diol [(3)] | 151 | –
8 | 3-phenyl pyrazolo[1,5,a]pyrimidine-5,7-diol [Compound (1)] | 52 | –
9 | 3-piperonylpyrazolo[1,5,a]pyrimidine-5,7-diol [(7)] | 172 | –
10 | Oc1nc(O)c2cn[nH]c2n1 [4,6-dihydroxy pyrazolo[3,4-d]pyrimidine] | – | inhibitor effectiveness compared with allopurinol (xanthine oxidase): not as effective an inhibitor as is allopurinol
11 | Oc1ncnc2[nH]ncc12 [Allopurinol, allopurinol] | – | LD50 [2]: about 150 milligrams per kilogram of body weight; metabolism in vivo [3]: gradually metabolized in vivo to 4,6-dihydroxy pyrazolo[3,4-d]pyrimidine
12 | Cc1cccc(-c2cnn3c(O)ccnc23)c1 [Compound (10), 3-(m-tolyl)pyrazolo[1,5a]pyrimidin-7-ol] | 50 | IC50 [1]: 100 nM
13 | Oc1ccnc2c(-c3ccccc3)cnn12 [Compound (11), 3-phenylpyrazolo[1,5a]pyrimidine-7-ol] | 33 | IC50 [1]: 150 nM
